This is an account of results in patent publication US20170360029A1, “Chemical Agent For Controlling Soil Nematode Which Comprises Macrolide-Type Compound” (Maruwa Biochemical Co., Ltd., priority 2012, published 2017).

In brackets after ≈: the same amount, converted by molar mass.

For series [1] the following is noted: cited from earlier work.
The test system of series [2] is sweet potato root-knot nematodes. In words: Nematode Control Test Example 1: emulsions mixed with infested soil, cherry tomato pot test. The class given is in vivo. The conditions noted are these: for Aerial part weight / Root-knot parasitism level: cherry tomato, after six weeks, sprayed liquid 10 ppm, concentration in soil 0.3 ppm; for Aerial part weight: mixed with soil; for nematode control effect (in words): concentration of active ingredient in the soil of 0.3 ppm; for Root-knot parasitism level: scale 0-4, mean. The procedure:
Each of abamectin 7.5% emulsion from NO. […] One liter of Pleistocene volcanic ash soil in which sweet potato root-knot nematodes had proliferated (the mean of initial sweet potato root-knot nematode density in the fourth-repeated cultivations: 235 nematodes/20 g of soil) was placed in a polyethylene bag and 30 ml of 10 ppm liquid of each chemical agent was mixed therewith while sprayed. The soil mixed with the chemical agent was filled in a pot with a surface area of 162 cm^2. A group where 1 L of soil was mixed and treated with 200 mg of a commercially available organophosphorus-based nematocide fosthiazate 1.5% granule (Ishihara Nemathorin Ace granule, a product from Ishihara Sangyo Kaisha, Ltd.) as a control chemical agent and a group with no treatment were set up. After the treatment with the chemical agent, three stocks of cherry tomato (variety Regina nursery plant with three true leaves, a product from Takii seed Co., Ltcd.) were planted. The test was repeated twice and cultivation management was conducted in a greenhouse. After six weeks, the weight of aerial parts and root-knot parasitism level were investigated.
(§1) In the test below, evaluation criteria for the root-knot parasitism level are as follows:
(§2) The evaluation was conducted using additional intermediate levels of 0.5 between each parasitism levels below at the investigation.
(§3) Parasitism level 0: No root-knots are noted at all.
(§4) Parasitism level 1: The formation of root-knots is noted in not more than 25% of the root.
(§5) Parasitism level 2: The formation of root-knots is noted in more than 25% and not more than 50% of the root.
(§6) Parasitism level 3: The formation of root-knots is noted in more than 50% and not more than 75% of the root.
(§7) Parasitism level 4: The formation of root-knots is noted in more than 75% of the root.

For series [3] the test system is unchanged. In words: Nematode Control Test Example 2: abamectin and moxidectin emulsions, pot test. The class given is in vivo. The conditions noted are these: for Aerial part weight: cherry tomato; for Aerial part weight / Root-knot parasitism level: after eight weeks; for Root-knot parasitism level: scale 0-4, mean. The procedure: as §1, §2, §3, §4, §5, §6, §7
Abamectin 7.5% emulsion from NO. 3 in Formulation Example 1 and moxidectin 7.5% emulsion from NO. 38 in Formulation Example 3 were prepared by diluting with tap water (water hardness about 70) at a concentration of active ingredient of 5 ppm, 10 ppm, and 20 ppm. One liter of Pleistocene volcanic ash soil in which sweet potato root-knot nematodes had proliferated (initial sweet potato root-knot nematode density: the mean in fourth-repeated cultivations 260 nematodes/20 g of soil) was placed in a polyethylene bag and 30 ml of each of the above was mixed therewith while sprayed. The soil mixed with the chemical agent was filled in a pot with a surface area of 162 cm^2. A group where 1 L of soil was mixed and treated with 200 mg of a commercially available organophosphorus-based nematocide fosthiazate 1.5% granule as a control chemical agent and a group with no treatment were set up. After the treatment with the chemical agent, four stocks of cherry tomato (variety Regina nursery plant with four true leaves) were planted. The test was repeated twice and cultivation management was conducted in a greenhouse. After eight weeks, the weight of aerial parts and root-knot parasitism level were investigated.

The conditions of series [4]: Non Patent Literature 4; cited from earlier work.
Setting [5] is: sprayed liquid 5 ppm, concentration in soil 0.15 ppm.
The mark [6] stands for this setting: sprayed liquid 10 ppm, concentration in soil 0.3 ppm.
Where [7] appears, read: sprayed liquid 20 ppm, concentration in soil 0.6 ppm.

For the compound `CNC(=O)O/N=C(\SC)C(=O)N(C)C` [oxamyl], in series [1], the solubility to water is 280 mg/mL (≈ 1280 mM).
Take ivermectin: in series [2], the Aerial part weight is 3.7 g/stock, the “nematode control effect (in words)” value is listed as “apparent nematode control effect” and the Root-knot parasitism level came out at 0.83.
Consider abamectin, for which, in series [2], the Aerial part weight amounted to 3.7 g/stock, the “nematode control effect (in words)” value is recorded as “apparent nematode control effect” and the Root-knot parasitism level was found to be 0.75. Also, in series [3] (setting [5]), the Aerial part weight came out at 55 g/stock and the Root-knot parasitism level came to 2.38. In series [3] (setting [6]), this compound showed an Aerial part weight of 49 g/stock and a Root-knot parasitism level of 1.17. In series [3] (setting [7]), the Aerial part weight was 45 g/stock and the Root-knot parasitism level is reported as 1.00. Further, the “capability of controlling nematodes (in words)” value in series [3] (comparison abamectin vs moxidectin, 0.15-0.6 ppm in soil) is recorded as “slightly better effect than moxidectin”. Also, in series [4], the “breakdown by soil microorganisms” value is “quickly broken down” and the soil adsorption entry is given as “very high”.
On to emamectin, for which, in series [2], the Aerial part weight is 3.3 g/stock, the “nematode control effect (in words)” value is “apparently exhibited fewer effects” and the Root-knot parasitism level is reported as 3.92.
The matching figures for `CO[C@H]1C[C@H](O[C@H]2[C@H](C)O[C@@H](O[C@@H]3/C(C)=C/C[C@@H]4C[C@@H](C[C@]5(C=C[C@H](C)[C@@H](C6CCCCC6)O5)O4)OC(=O)[C@@H]4C=C(C)[C@@H](O)[C@H]5OC/C(=C\C=C\[C@@H]3C)[C@]54O)C[C@@H]2OC)O[C@@H](C)[C@@H]1O` [DOR, doramectin]: 3.8 g/stock, “apparent nematode control effect” and 0.58.
With `CO/N=C1\C[C@]2(C[C@@H]3C[C@@H](C/C=C(\C)C[C@@H](C)/C=C/C=C4\CO[C@@H]5[C@H](O)C(C)=C[C@@H](C(=O)O3)[C@]45O)O2)O[C@H](/C(C)=C/C(C)C)[C@H]1C` [MOX, moxidectin], the Aerial part weight in series [2] was 4.1 g/stock; in series [3] (setting [5]) it was 44 g/stock; in series [3] (setting [6]), 54 g/stock; in series [3] (setting [7]), 42 g/stock. Also, the Root-knot parasitism level in series [2] is reported as 1.33; in series [3] (setting [5]), 2.81; in series [3] (setting [6]), 1.75; in series [3] (setting [7]) it was 1.38.
In series [2], lepimectin yielded an Aerial part weight of 3.1 g/stock and a Root-knot parasitism level of 4.00.
As for milbemectin, in series [2], the Aerial part weight stood at 2.5 g/stock and the Root-knot parasitism level is reported as 4.00. In series [1], the solubility to water is 0.00088 mg/mL.
Regarding `CC1=C[C@H]2C(=O)O[C@H]3C[C@@H](C/C=C(\C)C[C@@H](C)/C=C/C=C4\CO[C@H]([C@@H]1O)[C@@]42O)O[C@]1(C3)C[C@H](O)[C@H](C)[C@@H](/C(C)=C/C(C)C)O1` [NEM, nemadectin], in series [2], the Aerial part weight was found to be 3.0 g/stock and the Root-knot parasitism level was 4.00.
On to `CO[C@H]1C[C@H](O[C@@H]2/C(C)=C/C[C@@H]3C[C@@H](C[C@]4(CC[C@H](C)[C@@H](C5CCCCC5)O4)O3)OC(=O)[C@@H]3C=C(C)/C(=N/O)[C@H]4OC/C(=C\C=C\[C@@H]2C)[C@]43O)O[C@@H](C)[C@@H]1O` [SEL, selamectin], for which, in series [2], the Aerial part weight was 2.6 g/stock, the “nematode control effect (in words)” value was “apparently exhibited fewer effects” and the Root-knot parasitism level amounted to 4.00.
